# Measurements from ChEMBL document CHEMBL3351490, “The discovery of potent, orally bioavailable pyrimidine-5-carbonitrile-6-alkyl CXCR2 receptor antagonists” (Bioorg Med Chem Lett, 2014).
# Legend:
# [1] = biological target: T1, C-X-C chemokine receptor type 2 (Homo sapiens, UniProt P25025); experiment: Antagonist activity against human recombinant CXCR2 receptor expressed in CHO cell membranes by SPA based [35S]GTPgammaS binding assay; format: functional
# T1 sequence (P25025 whole entry): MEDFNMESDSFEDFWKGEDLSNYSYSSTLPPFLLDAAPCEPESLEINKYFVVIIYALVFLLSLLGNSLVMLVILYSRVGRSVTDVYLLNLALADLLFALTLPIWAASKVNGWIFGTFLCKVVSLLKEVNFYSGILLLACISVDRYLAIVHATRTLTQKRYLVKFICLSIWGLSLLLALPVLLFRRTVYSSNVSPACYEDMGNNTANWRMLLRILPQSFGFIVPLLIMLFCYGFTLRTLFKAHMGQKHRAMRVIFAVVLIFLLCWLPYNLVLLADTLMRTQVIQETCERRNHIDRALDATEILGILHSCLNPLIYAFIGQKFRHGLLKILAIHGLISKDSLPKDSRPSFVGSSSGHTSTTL
# [2] = biological target: T2, C-X-C chemokine receptor type 2 (Homo sapiens) (UniProt P25025); experiment: Antagonist activity against human recombinant CXCR2 receptor expressed in CHO cell membranes at 10 uM by SPA based [35S]GTPgammaS binding assay; format: functional
# T2 sequence (whole entry): T1 sequence (P25025 whole entry)
# [3] = biological target: T1, C-X-C chemokine receptor type 2; experiment: Displacement of [125I]-GRO-alpha from human recombinant CXCR2 receptor expressed in CHO cell membranes
# [4] = Clearance in iv dosed rat; format: ADME, organism-based; settings: in vivo
# [5] = Volume of distribution at steady state in iv dosed rat; format: ADME, organism-based; settings: in vivo, read-out: Vdss
# [6] = Half life in iv dosed rat; format: ADME, organism-based; settings: in vivo
# [7] = Oral bioavailability in rat; format: ADME, organism-based; settings: in vivo
# [8] = Protein binding in rat plasma; format: ADME, cell-free; settings: read-out: PPB
# [9] = Equilibrium solubility at pH 6.8; format: physicochemical; settings: buffer
# [10] = Dissociation constant, pKa of the compound; format: physicochemical
SMILES,IC50 [1] [µM],inhibition [2] [%],also measured
CS(=O)(=O)Nc1nc(SCc2cccc(F)c2F)nc(-c2ccccc2)c1C#N,> 30,–,–
N#Cc1c(O)nc(SCc2cccc(F)c2F)nc1C1CCC1,1.7,> 50,–
N#Cc1c(O)nc(SCc2cccc(F)c2F)nc1-c1ccc(O)cc1,0.78,> 50,–
N#Cc1c(O)nc(SCc2cccc(F)c2F)nc1[C@H]1C[C@@H]1C(=O)O,0.01,–,–
Cc1cccc(-c2nc(SCc3cccc(F)c3F)nc(O)c2C#N)c1,4.7,> 50,–
N#Cc1c(O)nc(SCc2cccc(F)c2F)nc1[C@H]1C[C@@H]1C(N)=O,0.007,–,–
CCOC(=O)[C@H]1C[C@@H]1c1nc(SCc2cccc(F)c2F)nc(O)c1C#N (racemic),1.5,–,–
CCOC(=O)[C@H]1C[C@@H]1c1nc(SCc2cccc(F)c2F)nc(O)c1C#N (stereo in doubt; form 2),1.3,–,–
N#Cc1c(O)nc(CSc2ccccc2)nc1C1CC1,> 30,–,–
CC(C)Oc1ccc(-c2nc(SCc3cccc(F)c3F)nc(O)c2C#N)cc1,1.6,> 50,–
N#Cc1c(O)nc(CSc2cccc(F)c2F)nc1C1CC1,10,–,–
N#Cc1c(O)nc(SCc2cccc(F)c2F)nc1C1CCCC1,4.9,> 50,–
N#Cc1c(O)nc(SCc2cccc(F)c2F)nc1[C@H]1C[C@@H]1CO,0.006,–,–
Oc1cc(C2CC2)nc(SCc2cccc(F)c2F)n1,0.32,–,–
Cc1nc(SCc2cccc(F)c2F)nc(O)c1C#N,4.3,> 50,–
N#Cc1c(O)nc(SCc2c(Cl)cccc2Cl)nc1-c1ccccc1,> 30,–,IC50 [3]: 4.3 µM

SMILES,IC50 [1] [µM],inhibition [2] [%],also measured
N#Cc1c(O)nc(SCc2cccc(F)c2F)nc1-c1ccc(Cl)cc1,7.4,> 50,–
N#Cc1c(O)nc(SCc2ccccc2)nc1C1CC1,0.51,–,–
N#Cc1c(O)nc(SCc2cccc(F)c2F)nc1C1CC1,0.14,> 50,IC50 [3]: 0.04 µM; clearance [4]: 1.6 mL/min/kg; Vd [5]: 0.2 L/kg; half-life [6]: 6 h; bioavailability [7]: > 100%; fraction unbound [8]: < 0.01; solubility thermodynamic [9]: 10 µg/mL; pKa [10]: 8.9
CC(C)c1nc(SCc2cccc(F)c2F)nc(O)c1C#N,0.9,> 50,–
CC(C)(Sc1nc(O)c(C#N)c(C2CC2)n1)c1ccccc1,6.4,–,–
CC(C)(CO)Nc1nc(SCc2cccc(F)c2F)nc(-c2ccccc2)c1C#N,> 30,–,–
COc1ccc(-c2nc(SCc3cccc(F)c3F)nc(O)c2C#N)cc1C,4.6,> 50,–
CC(Sc1nc(O)c(C#N)c(C2CC2)n1)c1ccccc1 (stereo not drawn),4.8,–,–
CCOC(=O)[C@H]1C[C@@H]1c1nc(SCc2cccc(F)c2F)nc(O)c1C#N (stereo in doubt; form 1),0.32,–,–
CC(C)(C)c1nc(SCc2cccc(F)c2F)nc(O)c1C#N,3.7,> 50,–
Oc1nc(SCc2cccc(F)c2F)nc(C2CC2)c1I,3.2,–,–
COc1ccc(-c2nc(SCc3cccc(F)c3F)nc(O)c2C#N)cc1,0.71,> 50,–
N#Cc1c(O)nc(SCc2cccc(F)c2F)nc1-c1ccccc1,3.7,–,–
Oc1nc(SCc2cccc(F)c2F)nc(C2CC2)c1Br,1.4,–,–
Cc1ccc(-c2nc(SCc3cccc(F)c3F)nc(O)c2C#N)cc1,1.4,> 50,–
